Measured values taken from patent publication US9409887B2, “Mutant-selective EGFR inhibitors and uses thereof” (Celgene Avilomics Research, Inc., priority 2010, dated 2016).

Legend:
EGFR-WT = EGFR-WT (Homo sapiens (Human), UniProt P00533); experiment: Omnia biochemical assay, EGFR (WT) active enzyme; details: [EGFR-WT]=5 nM, [ATP]=15 uM, 30 min pre-incubation
Excerpt: (§1) Omnia Assay Protocol for Potency Assessment Against EGFR (WT) and EGFR (T790M/L858R) Active Enzymes
(§2) Below describes the biochemical assay protocol using EGFR-WT and EGFR-T790M/L858R.
(§3) The mechanics of the assay platform are best described by the vendor (Invitrogen, Carlsbad, Calif.) on their website at the following URL: www.invitrogen.com/content.cfm?pageid=11338 or www.invitrogen.com/site/us/en/home/Pro ducts-and-Services/Applications/Drug-Discovery/Target-and-Lead-Identification-and-Validation/KinaseBiology/KB-Misc/Biochemical-Assays/Omnia-Kinase-Assays.html.
(§4) Briefly, 10× stocks of EGFR-WT (PV3872) from Invitrogen and EGFR-T790M/L858R (40350) from BPS Bioscience, San Diego, Calif., 1.13×ATP (AS001A) and appropriate Tyr-Sox conjugated peptide substrates (KCZ1001) were prepared in 1× kinase reaction buffer consisting of 20 mM Tris, pH 7.5, 5 mM MgCl2, 1 mM EGTA, 5 mM β-glycerophosphate, 5% glycerol (10× stock, KB002A) and 0.2 mM DTT (DS001A). 5 μL of each enzyme were pre-incubated in a Corning (#3574) 384-well, white, non-binding surface microtiter plate (Corning, N.Y.) for 30 min. at 25° C. with a 0.5 μL volume of 50% DMSO and serially diluted compounds prepared in 50% DMSO. Kinase reactions were started with the addition of 45 μL of the ATP/Tyr-Sox peptide substrate mix and monitored every 71 seconds for 60 minutes at λex360/λem485 in a Synergy^4 plate reader from BioTek (Winooski, Vt.). At the conclusion of each assay, progress curves from each well were examined for linear reaction kinetics and fit statistics (R^2, 95% confidence interval, absolute sum of squares). Initial velocity (0 minutes to ˜30 minutes) from each reaction was determined from the slope of a plot of relative fluorescence units vs time (minutes) and then plotted against inhibitor concentration to estimate IC50 from log [Inhibitor] vs Response, Variable Slope model in GraphPad Prism from GraphPad Software (San Diego, Calif.).
(§5) [EGFR-WT]=5 nM, [ATP]=15 uM, [Y12-Sox]=5 uM (ATP KMapp˜12 uM); and [EGFR-T790M/L858R]=2.5 nM, [ATP]=20 uM, [Y12-Sox]=5 uM (ATP KMapp˜20 uM).

EGFR-T790M/L858R = EGFR-T790M/L858R (Homo sapiens (Human), UniProt P00533, L858R/T790M); experiment: Omnia biochemical assay, EGFR (T790M/L858R) active enzyme; details: for IC50: [EGFR-T790M/L858R]=2.5 nM, [ATP]=20 uM, 30 min pre-incubation; for Ratio WT/mutant: biochemical IC50, WT EGFR vs EGFR (T790M/L858R)
Excerpt: as §1, §2, §3, §4, §5

WT-EGFR A431 cells = experiment: Cell proliferation (CellTiter Glo, 72 hr) in A431 cells; assay type: cell-based; details: Homo sapiens, A-431
Protocol: (§6) A431 human epidermoid carcinoma, H1975 human NSCLC and HCC827 human NSCLC adenocarcinoma cells were obtained from the American Type Culture Center (Manassas, Va.). A431 cells were grown in DMEM (Invitrogen, Carlsbad, Calif.) supplemented with 10% FBS (HyClone, South Logan, Utah) and 1% Penicillin-Streptomycin (P/S, Lonza, Walkersville, Md.). H1975 and HCC827 cells were grown in complete RPMI 1640 (Invitrogen) supplemented with 10% FBS and 1% P/S. All cells were maintained and propagated as monolayer cultures at 37° C. in a humidified 5% CO2 incubator.
(§7) Cells were plated in Growth Media supplemented with 5% FBS and 1% P/S at a density of 3,000 cells per well in 96 well tissue culture plates (Corning). Cells were allowed to settle down for 4 hr and then treated with 5, 1.25, 0.31, 0.078, 0.020 or 0.005 μM test compound for 72 hr. Cell viability was determined by CellTiter Glo (Promega, Madison, Wis.) and results were converted to cell numbers using a standard curve. Growth inhibition (GI50) values were determined by Graph Pad Prism.

[1] = test system: H1975 (double mutation L858R/T790M) cells; experiment: Cell proliferation (CellTiter Glo, 72 hr) in H1975 cells; assay type: cell-based, human; details: for GI50: Homo sapiens, NCI-H1975, H1975 cells, 72 hr; for Ratio WT/mutant (H1975): proliferation GI50, WT EGFR (A431) vs H1975
Protocol: as §6, §7

[2] = test system: HCC827 (delE746-A750 deletion mutation) cells; experiment: Cell proliferation (CellTiter Glo, 72 hr) in HCC827 cells; assay type: cell-based, human; details: for GI50: Homo sapiens, HCC827 cells, 72 hr; for Ratio WT/mutant (HCC827): proliferation GI50, WT EGFR (A431) vs HCC827
Protocol: as §6, §7

WT EGFR (A431 cells) = WT EGFR (A431 cells) (Homo sapiens (Human), UniProt P00533); experiment: Phospho-EGFR signaling (immunoblotting, 1 hr) in A431 cells; assay type: cell-based; details: 1 hr compound, EGF stimulated, phospho-EGFR (Y1068)
Protocol: as §6
(§8) All primary antibodies were obtained from Cell Signaling (Danvers, Mass.) and used at 1:1000. Secondary antibodies were used at 1:10,000. Goat anti-mouse IgG IRDye 800CW antibody was obtained from LiCor Biosciences (Lincoln, Nebr.) and goat anti-rabbit IgG Alexa Fluor 680 was obtained from Invitrogen.
(§9) Cells were grown in 12-well plates (Corning, Coring, N.Y.) to 90% confluence and then incubated in low-serum (0.1% FBS) media for 16-18 hr. […]
(§10) Lysate protein concentrations were determined by BCA Assay (Pierce, Rockford, Ill.) and 50 ug of each lysate was separated by 4-12% gradient SDS-PAGE (Invitrogen), transferred to nitrocellulose membrane (Biorad, Hercules, Calif.) and probed with specific antibodies. Phospho-protein signals were quantitated using Odyssey Infrared Imaging (Li-Cor Biosciences). […]

[3] = biological target: EGFR double mutation L858R/T790M (H1975 cells) (Homo sapiens (Human), UniProt P00533, L858R/T790M); experiment: Phospho-EGFR signaling (immunoblotting, 1 hr) in H1975 cells; assay type: cell-based; details: for EC50: H1975 cells, 1 hr compound, phospho-EGFR (Y1068); for Ratio WT/mutant (H1975): signaling EC50, WT EGFR (A431) vs H1975
Protocol: as §6, §8
Cells were grown in 12-well plates (Corning, Coring, N.Y.) to 90% confluence and then incubated in low-serum (0.1% FBS) media for 16-18 hr. Cells were then treated with 5, 1.25, 0.31, 0.078, 0.020 or 0.005 μM test compound in low-serum (0.1% FBS) media for 1 hr. A431 cells were then stimulated with 50 ng/ml EGF (Peprotech, Rocky Hill, N.J.) for 15 min. After treatment, cell monolayers were washed with cold PBS (Invitrogen) and immediately lysed by scrapping into 60 uL cold Cell Extraction Buffer (Invitrogen) supplemented with Complete Protease inhibitors (Roche, Indianapolis, Ind.) and PhosphoSTOP (Roche) phosphatase inhibitors.
Lysate protein concentrations were determined by BCA Assay (Pierce, Rockford, Ill.) and 50 ug of each lysate was separated by 4-12% gradient SDS-PAGE (Invitrogen), transferred to nitrocellulose membrane (Biorad, Hercules, Calif.) and probed with specific antibodies. Phospho-protein signals were quantitated using Odyssey Infrared Imaging (Li-Cor Biosciences).
To assess phosphor-EGFR signaling, blots were probed with rabbit anti-Phospho-EGFR (Y1068) and mouse total anti-EGFR antibodies. Phospho-EGFR signal was normalized to total EGFR expression for each sample. Results are indicated as % DMSO control. Normalized data was fitted using a sigmoidal curve analysis program (Graph Pad Prism version 5) with variable Hill slope to determine the EC50 values.
The compound numbers recited in Table 3 correspond to the compound numbers in Table 1.

[4] = biological target: EGFR delE746-A750 mutation (HCC827 cells) (Homo sapiens (Human), UniProt P00533, DEL746-750); experiment: Phospho-EGFR signaling (immunoblotting, 1 hr) in HCC827 cells; assay type: cell-based
Protocol: as §6, §8, §9, §10

H1975 tumor = H1975 tumor in vivo study; design: species or system nu/nu mice
Protocol: Female nu/nu mice were implanted with 1×10^7H1975 tumor cells in 50% Matrigel subcutaneously (0.2 ml injection volume) in the flank. Tumor measurements were recorded three times per week. Tumors were pair matched when they reached an average size of 100-150 mg. Group size was 10 mice. Test compound was administered intraperitoneal, 25 mg/kg or 50 mg/kg daily for 21 days. % Tumor inhibition was determined at 15 days and 18 days. Tumor volume was followed until tumors reached 1500 mm^3 or 60 days. Tumor inhibition value for I-1 was >80% for 25 mg/kg at both 15 and 18 days, and >90% for 50 mg/kg at both 15 and 18 days.

`C=CC(=O)Nc1cccc(Oc2nc(Nc3ccc(NC(C)C)cc3OC)ncc2Cl)c1` [Compound I-4, N-(3-(5-chloro-2-(4-(isopropylamino)-2-methoxyphenylamino)pyrimidin-4-yloxy)phenyl)acrylamide] was tested, and the IC50 (EGFR-WT) was 30 to 100 nM, the IC50 (EGFR-T790M/L858R) was 1 to 10 nM and the “Ratio WT/mutant” value (EGFR-T790M/L858R) was >25. For the same compound, the GI50 (WT-EGFR A431 cells) was > 1000 nM, the GI50 [1] was 500 to 1000 nM and the “Ratio WT/mutant (H1975)” value [1] was >1. The GI50 [2] was 100 to 500 nM and the “Ratio WT/mutant (HCC827)” value [2] was >35.
In the case of `C=CC(=O)Nc1cccc(Nc2nc(Nc3ccc(NC(C)C)cc3OC)ncc2C(F)(F)F)c1` [Compound I-5, N-(3-(2-(4-(isopropylamino)-2-methoxyphenylamino)-5-(trifluoromethyl)pyrimidin-4-ylamino)phenyl)acrylamide], the IC50 (EGFR-WT) is reported as 10 to 30 nM, the IC50 (EGFR-T790M/L858R) is reported as < 1 nM and the “Ratio WT/mutant” value (EGFR-T790M/L858R) is reported as >20. For the same compound, the GI50 (WT-EGFR A431 cells) was 500 to 1000 nM, the GI50 [1] was 100 to 500 nM and the “Ratio WT/mutant (H1975)” value [1] was >1. For the same compound, the GI50 [2] was 100 to 500 nM and the “Ratio WT/mutant (HCC827)” value [2] was >5.
With `C=CC(=O)Nc1cccc(Nc2nc(Nc3ccc(NC4CN(C(C)=O)C4)cc3OC)ncc2C(F)(F)F)c1` [Compound I-2, N-(3-(2-(4-(1-acetylazetidin-3-ylamino)-2-methoxyphenylamino)-5-(trifluoromethyl)pyrimidin-4-ylamino)phenyl)acrylamide] the IC50 (EGFR-WT) was 1 to 10 nM, the IC50 (EGFR-T790M/L858R) was < 1 nM and the “Ratio WT/mutant” value (EGFR-T790M/L858R) was >15. For the same compound, the GI50 (WT-EGFR A431 cells) was > 1000 nM, the GI50 [1] was 100 to 500 nM and the “Ratio WT/mutant (H1975)” value [1] was >5. The GI50 [2] was 100 to 500 nM and the “Ratio WT/mutant (HCC827)” value [2] was >15.
With `C=CC(=O)Nc1cccc(Nc2nc(Nc3ccc(NC4CN(C(=O)OC(C)(C)C)C4)cc3OC)ncc2C(F)(F)F)c1` [Compound I-3, tert-butyl 3-(4-(4-(3-acrylamidophenylamino)-5-(trifluoromethyl)pyrimidin-2-ylamino)-3-methoxyphenylamino)azetidine-1-carboxylate] the IC50 (EGFR-WT) was 100 to 300 nM, the IC50 (EGFR-T790M/L858R) was 1 to 10 nM and the “Ratio WT/mutant” value (EGFR-T790M/L858R) was >50. The EC50 (WT EGFR (A431 cells)) was > 1000 nM, the EC50 [3] was 100 to 500 nM and the “Ratio WT/mutant (H1975)” value [3] was >10. For the same compound, the GI50 (WT-EGFR A431 cells) was > 1000 nM, the GI50 [1] was 100 to 500 nM and the “Ratio WT/mutant (H1975)” value [1] was >5. The GI50 [2] was 10 to 100 nM and the “Ratio WT/mutant (HCC827)” value [2] was >20.
`C=CC(=O)Nc1cccc(Nc2nc(Nc3ccc(NC4CN(CCF)C4)cc3OC)ncc2C(F)(F)F)c1` [Compound I-1, N-(3-(2-(4-(1-(2-fluoroethyl)azetidin-3-ylamino)-2-methoxyphenylamino)-5-(trifluoromethyl)pyrimidin-4-ylamino)phenyl)acrylamide] was tested, and the IC50 (EGFR-WT) was 1 to 10 nM, the IC50 (EGFR-T790M/L858R) was < 1 nM and the “Ratio WT/mutant” value (EGFR-T790M/L858R) was >1. The EC50 (WT EGFR (A431 cells)) was > 1000 nM, the EC50 [3] was 10 to 100 nM and the “Ratio WT/mutant (H1975)” value [3] was >35. For the same compound, the EC50 ([4]; HCC827 cells, 1 hr compound, phospho-EGFR (Y1068)) was 100 to 500 nM, the “Ratio WT/mutant (HCC827)” value ([4]; signaling EC50, WT EGFR (A431) vs HCC827) was >10 and the GI50 (WT-EGFR A431 cells) was 500 to 1000 nM. For the same compound, the GI50 [1] was 10 to 100 nM, the “Ratio WT/mutant (H1975)” value [1] was >10 and the GI50 [2] was 10 to 100 nM. For the same compound, the “Ratio WT/mutant (HCC827)” value [2] was >10, the Tumor inhibition value (H1975 tumor; 25 mg/kg intraperitoneal daily, at 15 days) was > 80% and the Tumor inhibition value (H1975 tumor; 25 mg/kg intraperitoneal daily, at 18 days) was > 80%. For the same compound, the Tumor inhibition value (H1975 tumor; 50 mg/kg intraperitoneal daily, at 15 days) was > 90% and the Tumor inhibition value (H1975 tumor; 50 mg/kg intraperitoneal daily, at 18 days) was > 90%.
